Experimental data: patent US9278963B2, “Pyrimidine hydroxy amide compounds as histone deacetylase inhibitors” (Acetylon Pharmaceuticals, Inc., priority 2013, dated 2016)
pIC50: −log10 of the molar value.

What was measured:
HDAC1 = HDAC1 (Homo sapiens (Human), UniProt Q13547); test: HDAC enzyme assay, HDAC1; assay type: biochemical
HDAC3 = HDAC3 (Homo sapiens (Human), UniProt O15379); test: HDAC enzyme assay, HDAC3; assay type: biochemical
HDAC6 = HDAC6 (Homo sapiens (Human), UniProt Q9UBN7); test: HDAC enzyme assay, HDAC6; assay type: biochemical
Chain of HDAC6 (Q9UBN7 whole entry): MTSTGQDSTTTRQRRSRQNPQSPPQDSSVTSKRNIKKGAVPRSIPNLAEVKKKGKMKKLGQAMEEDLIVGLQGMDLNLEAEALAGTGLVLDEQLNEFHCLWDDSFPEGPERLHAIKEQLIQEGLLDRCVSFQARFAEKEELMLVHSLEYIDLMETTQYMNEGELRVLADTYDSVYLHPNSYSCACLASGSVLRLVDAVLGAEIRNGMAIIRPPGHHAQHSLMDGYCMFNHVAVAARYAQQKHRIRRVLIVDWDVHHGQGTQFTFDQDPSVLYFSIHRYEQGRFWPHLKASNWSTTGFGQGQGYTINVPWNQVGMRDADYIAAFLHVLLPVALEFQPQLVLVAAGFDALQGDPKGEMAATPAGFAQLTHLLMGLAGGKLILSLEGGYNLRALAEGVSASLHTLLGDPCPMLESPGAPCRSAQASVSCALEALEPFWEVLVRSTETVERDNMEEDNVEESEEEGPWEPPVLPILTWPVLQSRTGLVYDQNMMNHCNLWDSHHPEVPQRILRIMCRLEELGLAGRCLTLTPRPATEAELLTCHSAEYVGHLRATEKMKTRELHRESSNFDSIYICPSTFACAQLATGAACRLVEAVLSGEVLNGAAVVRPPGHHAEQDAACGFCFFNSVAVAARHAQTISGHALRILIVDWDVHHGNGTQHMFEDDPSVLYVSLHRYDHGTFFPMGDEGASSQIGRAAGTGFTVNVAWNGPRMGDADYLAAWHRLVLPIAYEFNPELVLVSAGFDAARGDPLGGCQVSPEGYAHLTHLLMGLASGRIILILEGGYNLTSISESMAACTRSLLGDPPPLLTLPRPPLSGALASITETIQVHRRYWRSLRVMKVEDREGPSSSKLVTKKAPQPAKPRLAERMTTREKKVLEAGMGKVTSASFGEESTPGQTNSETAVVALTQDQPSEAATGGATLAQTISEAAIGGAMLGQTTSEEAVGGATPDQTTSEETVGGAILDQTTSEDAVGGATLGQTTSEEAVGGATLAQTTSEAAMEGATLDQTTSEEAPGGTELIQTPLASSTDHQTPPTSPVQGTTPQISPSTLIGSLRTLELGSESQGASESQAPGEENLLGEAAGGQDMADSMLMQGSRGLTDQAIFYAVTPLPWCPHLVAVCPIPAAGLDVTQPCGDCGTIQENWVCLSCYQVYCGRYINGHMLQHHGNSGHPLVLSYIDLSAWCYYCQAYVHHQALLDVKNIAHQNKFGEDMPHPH
Protocol: Compounds for testing were diluted in DMSO to 50 fold the final concentration and a ten point three fold dilution series was made. The compounds were diluted in assay buffer (50 mM HEPES, pH 7.4, 100 mM KCl, 0.001% Tween-20, 0.05% BSA, 20 μM TCEP) to 6 fold their final concentration. The HDAC enzymes (purchased from BPS Biosciences) were diluted to 1.5 fold their final concentration in assay buffer. The tripeptide substrate and trypsin at 0.05 μM final concentration were diluted in assay buffer at 6 fold their final concentration. The final enzyme concentrations used in these assays were 3.3 ng/ml (HDAC1), 0.2 ng/ml (HDAC2), 0.08 ng/ml (HDAC3) and 2 ng/ml (HDAC6). The final substrate concentrations used were 16 μM (HDAC1), 10 μM (HDAC2), 17 μM (HDAC3) and 14 μM (HDAC6).
Five μl of compounds and 20 μl of enzyme were added to wells of a black, opaque 384 well plate in duplicate. Enzyme and compound were incubated together at room temperature for 10 minutes. Five μ1 of substrate was added to each well, the plate was shaken for 60 seconds and placed into a Victor 2 microtiter plate reader. The development of fluorescence was monitored for 60 min and the linear rate of the reaction was calculated. The IC50 was determined using Graph Pad Prism by a four parameter curve fit. The IC50 values obtained for several of the compounds of this invention are found in Table 1.

[1] = test system: human erythroid, myeloid and megakaryocyte hematopoietic progenitors; test: Hematopoietic progenitor proliferation (colony) assay; assay type: cell-based; details: compared with MS-275; 14-16 days in culture
Protocol: This study evaluated the potential effect of test compounds on human erythroid, myeloid and megakaryocyte hematopoietic progenitor proliferation in media formulations containing various cytokines. Normal human bone marrow light density cells derived from a normal bone marrow donor (Lonza, Md.) were used for these studies. Clonogenic progenitors of human erythroid (CFU-E, BFU-E) and granulocyte-monocyte (CFU-GM) lineages were assessed in a semi-solid methylcellulose-based media formulation containing rhIL-3 (10 ng/mL), rhGM-SCF (10 ng/mL), rhSCF (50 ng/mL) and Epo (3 U/mL). Clonogenic progenitors of human megakaryocyte lineage were assessed in a semi-solid collagen based matrix containing rhIL-3 (10 ng/mL), rhIL-6 (10 ng/mL) and rhTpo (50 ng/mL).
Compounds were added to the medium to give the final desired concentrations. […] Following 14-16 days in culture, myeloid and erythroid colonies were assessed microscopically and scored by trained personnel. […] The colonies were assessed and scored by trained personnel and divided into the following categories based on size; CFU-Mk (3-20), CFU-Mk (21-49) and CFU-Mk (≧50).
The mean±1 standard deviation of three replicate cultures was calculated for progenitors in both media formulations. […] A sigmoidal curve was then fit to the graph and from this curve the inhibitory concentration (μM) was then calculated using the Boltzman equation […]

Chain of HDAC1 (Q13547 whole entry): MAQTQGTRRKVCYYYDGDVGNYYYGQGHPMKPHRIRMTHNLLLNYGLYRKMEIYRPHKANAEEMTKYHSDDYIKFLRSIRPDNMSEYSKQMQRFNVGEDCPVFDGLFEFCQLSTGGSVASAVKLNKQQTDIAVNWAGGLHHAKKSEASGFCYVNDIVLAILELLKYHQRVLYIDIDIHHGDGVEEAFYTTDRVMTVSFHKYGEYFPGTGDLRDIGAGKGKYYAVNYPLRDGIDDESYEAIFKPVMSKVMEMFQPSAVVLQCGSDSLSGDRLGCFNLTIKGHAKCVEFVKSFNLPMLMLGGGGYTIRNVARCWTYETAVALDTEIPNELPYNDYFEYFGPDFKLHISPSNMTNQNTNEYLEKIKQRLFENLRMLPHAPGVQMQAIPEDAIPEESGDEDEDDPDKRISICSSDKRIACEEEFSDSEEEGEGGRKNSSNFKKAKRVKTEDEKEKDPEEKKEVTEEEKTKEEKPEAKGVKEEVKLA
Chain of HDAC3 (O15379 whole entry): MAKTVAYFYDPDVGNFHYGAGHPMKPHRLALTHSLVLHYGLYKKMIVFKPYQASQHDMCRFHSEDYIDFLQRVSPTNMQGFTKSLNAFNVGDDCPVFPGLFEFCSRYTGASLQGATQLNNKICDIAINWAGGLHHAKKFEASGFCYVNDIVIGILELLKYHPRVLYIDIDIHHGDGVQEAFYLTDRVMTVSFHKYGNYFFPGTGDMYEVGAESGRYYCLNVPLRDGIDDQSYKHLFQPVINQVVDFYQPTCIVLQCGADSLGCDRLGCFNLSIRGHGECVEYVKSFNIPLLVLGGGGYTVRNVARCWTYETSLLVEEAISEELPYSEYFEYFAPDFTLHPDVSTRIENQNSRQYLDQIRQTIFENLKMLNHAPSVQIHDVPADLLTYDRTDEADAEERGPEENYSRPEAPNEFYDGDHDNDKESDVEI
Chain of HDAC3 (Q9Y618 395-489 partner): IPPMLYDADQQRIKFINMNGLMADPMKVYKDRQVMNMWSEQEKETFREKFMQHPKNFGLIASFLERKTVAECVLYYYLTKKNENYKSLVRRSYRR

- pIC50 (HDAC1): 7.42
- selectivity for HDAC1 and 2 (HDAC1; relative to HDAC3): 30 fold
- pIC50 (HDAC3): 6.00
- pIC50 (HDAC6): 8.72
SMILES: O=C(NO)c1cnc(NC2(c3ccccc3)CCN(C(=O)Nc3ccccc3)CC2)nc1 [Compound 001, N-hydroxy-2-((4-phenyl-1-(phenylcarbamoyl)piperidin-4-yl)amino)pyrimidine-5-carboxamide]
- cytotoxicity against erythroid, myeloid and megakaryocytes [1]: significantly less cytotoxicity
